This is an account of results in publication PMC11637483, “Dissecting caspase-2-mediated cell death: from intrinsic PIDDosome activation to chemical modulation” (Protein & Cell, 2024).

Experiment [1] concerns Hepa1-6 cells. Kind of experiment: Cell death and caspase-2 processing in Hepa1-6 cells. The class given is cell-based, mouse. The following applies: Hepa1-6, 8 h. An excerpt:
We further examined whether HUHS015-derived compounds could activate endogenous caspase-2 in human cells. […] Complementing the CASP2^−/− Jurkat cells with exogenous caspase-2 restored HUHS015-36-induced apoptosis, in which caspase-2 was expectedly processed (Fig. 5A and 5B). We also profiled caspase-2 expression in a panel of 10 mouse tumor cell lines and observed highly variable expression levels (Fig. 5C). […] In B16-F10 (melanoma), LLC1 (Lewis lung carcinoma), MB49 (bladder carcinoma), KPC (pancreatic ductal adenocarcinoma), and 4T1 (mammary carcinoma) cells, caspase-2 was expressed at much lower levels (Fig. 5C). In contrast, EMT6 (mammary carcinoma), EL4 (T lymphoblast), and Hepa1-6 (hepatoma) feature robust caspase-2 expression, much higher than in Jurkat cells (Fig. 5C).
Figure 5. HUHS015-36 activates endogenous caspase-2 to induce apoptosis in Jurkat cells but not mouse cells. (A and B) HUHS015-36 activates endogenous caspase-2 and induces apoptosis in human Jurkat cells. […] Lysates of 10 mouse cancer cell lines were analyzed by immunoblotting using indicated antibodies. […] ATP cell viability (A and D) is expressed as mean ± s.d. from three technical replicates. […]
Cell viability was measured by the ATP assay using the CellTiter-Glo® Luminescent Cell Viability Assay kit (Promega).

Experiment [2] deals with HeLa-CASP2−/−CASP3−/−GSDMD−/− (TKO) cells. The experiment in a line: Cell death in control HeLa triple knockout cells without active caspase-2. Format: cell-based, human. An excerpt: Specific chemical compounds are powerful tools for dissecting target-related signaling mechanisms in biological contexts ([Beck et al., 2022]; [Zhang et al., 2012]). Prompted by this notion and possibly to identify a compound that could activate the PIDDosome, we designed a cell death-based high-throughput chemical screen in HeLa cells, in which a triple knockout of CASP2, CASP3, and GSDMD were constructed. CASP3 and GSDMD deficiency served as the background to minimize compound-induced nonspecific cytotoxicity and undesired pyroptosis. Using the triple knockout cells as the control, additional expression of exogenous caspase-2 allows the identification of compounds that can specifically activate the caspase-2-BID pathway and trigger apoptosis through caspase-7. […]
Figure 3. […] The ratios of the cell viability between the two groups are calculated with 3 as a cutoff for positive compound hit selection. […] Processing of caspase-2, -3, and -7 was analyzed by immunoblotting. […] ATP-based cell viability in panels (B and D) is expressed as mean ± s.d. from three technical replicates. […]
Drug-related Screening Library (25 × 384-well plate, more than 7,000 compounds) was used for the chemical screen in the TKO HeLa cells rescued with exogenous caspase-2 expression. […] After treatment for 12 h, the cell viability was measured by the ATP assay. […]

For `Cc1cccc2nc(-n3nc4c(c3O)CCCC4)[nH]c12` [HUHS015-36], in experiment [1], the “caspase-2 processing and cell death” value was “no caspase-2 processing and cell death were detected”.

On to `Cc1ccc2nc(-n3nc(C)c(Cc4ccccc4)c3O)[nH]c2c1` [HUHS015], for which, in experiment [2] (TKO cells expressing protease-deficient caspase-2 C320A), the cell death entry is listed as “no cell death”. The “cell death selectivity, caspase-2-expressing vs control TKO cells” value in experiment [2] (chemical screen, 12 h) is reported as “robust cell death selectively in caspase-2-expressing but not the control triple knockout cells”.
